Four compounds from PMC7926793, “Synthesis and Biological Evaluation of 1-(Diarylmethyl)-1H-1,2,4-triazoles and 1-(Diarylmethyl)-1H-imidazoles as a Novel Class of Anti-Mitotic Agent for Activity in Breast Cancer” (Pharmaceuticals, 2021) can be followed below.

For orientation: pIC50 means −log10 of the IC50, conventionally taken in molar units. Low readings indicate a large IC50, high ones a small IC50.

pIC50: −log10 of the molar value. “And” between values parts separate entries of the source, which are not always exact repeats. Equal entries are not always repeated.

Data set [1] has as its system TK-10. Nature of the data set: NCI 60 cell line screen (Renal Cancer). In kind it is cell-based, human. As to conditions: TK-10, single dose 10 µM.
Data set [2] relates to MCF-7. As to the kind of experiment: NCI 60 cell line screen (Breast Cancer). In kind it is cell-based, human. Conditions: MCF-7, single dose 10 µM.
Data set [3] concerns NCI/ADR-RES. As to the kind of experiment: NCI 60 cell line screen (Ovarian Cancer). In kind it is cell-based, human. As to conditions: single dose 10 µM.
The subject of data set [4] is OVCAR-5. As to the kind of experiment: NCI 60 cell line screen (Ovarian Cancer). In kind it is cell-based, human. Conditions: OVCAR-5, single dose 10 µM.
Data set [5] has as its system KM12. Nature of the data set: NCI 60 cell line screen (Colon Cancer). In kind it is cell-based, human. Conditions: KM12, single dose 10 µM.
Data set [6] has as its system SNB-19. As to the kind of experiment: NCI 60 cell line screen (CNS Cancer). In kind it is cell-based, human. As to conditions: SNB-19, single dose 10 µM.
Data set [7] has as its system MALME-3M. As to the kind of experiment: NCI 60 cell line screen (Melanoma). In kind it is cell-based, human. As to conditions: single dose 10 µM.
Data set [8] has as its system HCT-2998. Nature of the data set: NCI 60 cell line screen (Colon Cancer). In kind it is cell-based, human. As to conditions: HCT-2998, single dose 10 µM.
Data set [9] concerns HS 578T. As to the kind of experiment: NCI 60 cell line screen (Breast Cancer). In kind it is cell-based, human. Conditions: single dose 10 µM.
Data set [10] concerns M14. Nature of the data set: NCI 60 cell line screen (Melanoma). In kind it is cell-based, human. As to conditions: M14, single dose 10 µM.
Data set [11] deals with MDA-MB-468. Nature of the data set: NCI 60 cell line screen (Breast Cancer). In kind it is cell-based, human. Conditions: MDA-MB-468, single dose 10 µM.
Data set [12] deals with SK-MEL-2. Nature of the data set: NCI 60 cell line screen (Melanoma). In kind it is cell-based, human. Conditions: SK-MEL-2, single dose 10 µM.
Data set [13] deals with SK-MEL-28. Nature of the data set: NCI 60 cell line screen (Melanoma). In kind it is cell-based, human. Conditions: SK-MEL-28, single dose 10 µM.
The test system of data set [14] is EKVX. Nature of the data set: NCI 60 cell line screen (Non-Small Cell Lung Cancer). In kind it is cell-based, human. As to conditions: single dose 10 µM.
The subject of data set [15] is MOLT-4. As to the kind of experiment: NCI 60 cell line screen (Leukemia). In kind it is cell-based, human. Conditions: MOLT-4, single dose 10 µM.
Data set [16] has as its system SK-MEL-5. Nature of the data set: NCI 60 cell line screen (Melanoma). In kind it is cell-based, human. As to conditions: SK-MEL-5, single dose 10 µM.
The test system of data set [17] is NCI-H23. As to the kind of experiment: NCI 60 cell line screen (Non-Small Cell Lung Cancer). In kind it is cell-based, human. As to conditions: NCI-H23, single dose 10 µM.
In data set [18] the test system is DU-145. Nature of the data set: NCI 60 cell line screen (Prostate cancer). In kind it is cell-based, human. Conditions: DU-145, single dose 10 µM.
Data set [19] relates to MDA-MB-435. As to the kind of experiment: NCI 60 cell line screen (Melanoma). As to conditions: MDA-MB-435, single dose 10 µM. In kind it is cell-based, human.
The test system of data set [20] is NCI-H460. Nature of the data set: NCI 60 cell line screen (Non-Small Cell Lung Cancer). In kind it is cell-based, human. Conditions: NCI-H460, single dose 10 µM.
For data set [21], the system named is HOP-62. The data set is described as above. In kind it is cell-based, human. Conditions: HOP-62, single dose 10 µM.
Data set [22] deals with UACC-62. Nature of the data set: NCI 60 cell line screen (Melanoma). In kind it is cell-based, human. Conditions: UACC-62, single dose 10 µM.
Data set [23] deals with HL-60 (TB). As to the kind of experiment: NCI 60 cell line screen (Leukemia). In kind it is cell-based, human. Conditions: single dose 10 µM.
Data set [24] has as its system RPMI-8226. Nature of the data set: NCI 60 cell line screen (Leukemia). In kind it is cell-based, human. As to conditions: RPMI-8226, single dose 10 µM.
For data set [25], the target named is T1, CYP1A1 (Homo sapiens, UniProt P04798).
T1 sequence (P04798 1-512): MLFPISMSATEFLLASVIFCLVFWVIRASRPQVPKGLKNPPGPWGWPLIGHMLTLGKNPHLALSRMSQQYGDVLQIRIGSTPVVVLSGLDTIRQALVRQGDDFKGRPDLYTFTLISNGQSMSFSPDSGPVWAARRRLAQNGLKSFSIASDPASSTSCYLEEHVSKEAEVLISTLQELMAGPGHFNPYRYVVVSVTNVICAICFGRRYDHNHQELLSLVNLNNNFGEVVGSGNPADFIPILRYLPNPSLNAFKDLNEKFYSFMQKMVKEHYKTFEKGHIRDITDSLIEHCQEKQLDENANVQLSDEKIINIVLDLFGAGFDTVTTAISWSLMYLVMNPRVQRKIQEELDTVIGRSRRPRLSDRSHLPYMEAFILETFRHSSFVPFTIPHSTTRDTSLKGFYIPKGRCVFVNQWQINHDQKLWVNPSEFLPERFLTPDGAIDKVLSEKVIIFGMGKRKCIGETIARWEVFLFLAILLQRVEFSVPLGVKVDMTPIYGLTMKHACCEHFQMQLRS
Nature of the data set: cytochrome P450 assay (DBF fluorescence).

The target in data set [26] is T2, CYP19 (aromatase) (Homo sapiens, UniProt P11511).
T2 sequence (P11511 1-503): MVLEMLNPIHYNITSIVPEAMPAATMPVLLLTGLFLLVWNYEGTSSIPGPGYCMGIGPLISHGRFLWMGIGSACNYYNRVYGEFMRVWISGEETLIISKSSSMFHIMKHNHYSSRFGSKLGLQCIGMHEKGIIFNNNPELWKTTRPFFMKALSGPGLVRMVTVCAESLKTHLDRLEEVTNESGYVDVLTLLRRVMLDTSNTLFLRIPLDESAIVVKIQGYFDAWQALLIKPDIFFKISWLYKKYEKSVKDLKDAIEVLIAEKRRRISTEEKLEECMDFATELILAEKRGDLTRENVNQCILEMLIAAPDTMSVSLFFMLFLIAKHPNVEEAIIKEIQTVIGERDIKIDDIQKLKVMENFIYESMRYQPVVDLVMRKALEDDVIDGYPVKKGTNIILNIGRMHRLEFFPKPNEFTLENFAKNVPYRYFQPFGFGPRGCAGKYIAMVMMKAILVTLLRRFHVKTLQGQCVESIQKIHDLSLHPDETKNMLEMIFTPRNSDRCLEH
Nature of the data set: cytochrome P450 assay (DBF fluorescence).

`COc1ccc(C(c2cc(OC)c(OC)c(OC)c2)N2CCCCC2)cc1` (stereo not shown) [26b, 1-((4-Methoxyphenyl)(3,4,5-Trimethoxyphenyl)Methyl)Piperidine]: the Growth percentage in [1] came to 57.56%; in data set [2], 23.57%; in data set [3], 23.95%; in data set [4], 69.57%; in data set [5], 30.23%; in [6], 30.43%. Further, the Growth percentage in [7] is 55.25%; in data set [8] it was 79.59%; in data set [9], 16.61% and 16.6%; in data set [10], 23.27%; in data set [11] it was 9.32% and 9.3%; in [12], 22.02%. The Growth percentage turned out to be 47.22% in data set [13]; 59.13% in data set [14]; 31.54% in data set [15]; 29.49% in data set [16]; 59.28% in data set [17]; 64.18% in data set [18]. For the same compound, the Growth percentage in [19] was -21.79%; in data set [20], 19.38%; in data set [21], 29.82%; in data set [22], 18.17%; in data set [23], 4.36%; in [24], 41.20%.

Take `COc1ccc(C(c2cc(OC)c(OC)c(OC)c2)N2CCN(Cc3ccccc3)CC2)cc1` (stereo not shown) [27d]: the Growth percentage in [1] turned out to be 84.76%; in data set [2], 47.67%; in data set [3] it was 61.59%; in data set [4] it was 84.69%; in data set [5], 40.62%; in [6] it was 69.95%. The Growth percentage in data set [7] is reported as 74.83%; in data set [8], 91.92%; in [9] it was 59.07%; in data set [10], 52.83%; in data set [11], 52.99%; in [12], 27.38%. Further, the Growth percentage is given as 78.33% in [13]; 82.69% in data set [14]; 53.48% in data set [15]; 52.63% in data set [16]; 88.53% in [17]; 102.00% in [18]. The Growth percentage in data set [19] is on record as -32.20%; in [20] it was 74.38%; in [21] it was 69.72%; in data set [22] it was 49.44%; in [23], 22.98%; in [24] it was 84.15%.

As for `COc1ccc(C(c2cc(OC)c(OC)c(OC)c2)n2nccn2)cc1O` (stereo not shown) [compound 24], the pIC50 in data set [25] (IC50 CYP1A1) and in data set [26] (IC50 CYP19) was under 4.27 in each case. Besides, the inhibition at 25 min, 20 µg/mL in [25] (human, recombinant CYP1A1, pH 7.4, probe dibenzylfluorescein (DBF), 2.0 μM) was 12.8%. Moreover, the inhibition at 20 µg/mL in [26] (read-out: % Inhibition at 20 µg/mL CYP19) was 0.01%.

Take `COc1ccc(C(c2cc(OC)c(OC)c(OC)c2)N2CCCC2)cc1` (stereo not shown) [25g]: the Growth percentage was found to be 88.29% in [1]; 64.09% in [2]; 69.39% in data set [3]; 92.64% in data set [4]; 43.91% in data set [5]; 90.50% in data set [6]. Further, the Growth percentage in data set [7] was found to be 85.32%; in data set [8] it was 89.14%; in data set [9] it was 80.45%; in [10] it was 60.08%; in data set [11], 54.75%; in [12] it was 55.67%. The Growth percentage in [13] is on record as 80.08%; in data set [14], 87.78%; in data set [15] it was 78.09%; in [16] it was 65.20%; in data set [17] it was 85.27%; in data set [18], 103.12%. In addition, the Growth percentage was -21.80% in [19]; 84.31% in [20]; 79.46% in data set [21]; 57.35% in data set [22]; 35.51% in data set [23]; 97.42% in [24].
